Tested on: 463943-066-T-J2-PDC complex spheroid growth
Test: Anticancer human tumor 463943-066-T-J2-PDC patient-derived colon adenocarcinoma cell line growth inhibition [Asc]
Conditions: for IC50: curve of first compound; for viability, T/C: stronger effect = lower value
In short: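 Concentration series start at each agent's clinical Cmax, or at 10 microM when none is established, and drop in half-log steps; agents are applied alone or together to complex spheroids built with HUVEC and hMSC.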

[1] = second compound 0.0316 µM, first compound 0.0316 µM
[2] = second compound 0.0316 µM, first compound 0.1 µM
[3] = second compound 0.0316 µM, first compound 0.316 µM
[4] = second compound 0.0316 µM, first compound 1 µM
[5] = second compound 0.1 µM, first compound 0.0316 µM
[6] = second compound 0.1 µM, first compound 0.1 µM
[7] = second compound 0.1 µM, first compound 0.316 µM
[8] = second compound 0.1 µM, first compound 1 µM
[9] = second compound 0.316 µM, first compound 0.0316 µM
[10] = second compound 0.316 µM, first compound 0.1 µM
[11] = second compound 0.316 µM, first compound 0.316 µM
[12] = second compound 0.316 µM, first compound 1 µM
[13] = second compound 1 µM, first compound 0.0316 µM
[14] = second compound 1 µM, first compound 0.1 µM
[15] = second compound 1 µM, first compound 0.316 µM
[16] = second compound 1 µM, first compound 1 µM
[17] = second compound 3.16 µM, first compound 0.0316 µM
[18] = second compound 3.16 µM, first compound 0.1 µM
[19] = second compound 3.16 µM, first compound 0.316 µM
[20] = second compound 3.16 µM, first compound 1 µM
[21] = second compound 10 µM, first compound 0.0316 µM
[22] = second compound 10 µM, first compound 0.1 µM
[23] = second compound 10 µM, first compound 0.316 µM
[24] = second compound 10 µM, first compound 1 µM
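Also: compound exposure lasted 7 days.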
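For viability, T/C in this document: 100% = DMSO vehicle control wells.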

C=CC(=O)N1CCN(c2nc(=O)n(-c3c(C)ccnc3C(C)C)c3nc(-c4c(O)cccc4F)c(F)cc23)C(C)C1 (centres undefined) + Cc1c(S(C)(=O)=O)c(-c2cc(F)cc(N3CCN(c4ccc(NS(=O)(=O)c5ccc(NC(CCN6CCC(C(=O)OCCCP(=O)(O)O)CC6)CSc6ccccc6)c(S(=O)(=O)C(F)(F)F)c5)cc4)CC3)c2)c(-c2ccc(Cl)cc2)n1C(C)C
IC50 (second compound 0.0316 µM): > 10000 nM
IC50 (second compound 0.1 µM): > 10000 nM
IC50 (second compound 0.316 µM): > 10000 nM
IC50 (second compound 1 µM): > 10000 nM
IC50 (second compound 3.16 µM): > 10000 nM
IC50 (second compound 10 µM): 7140 nM
viability, T/C [1]: 84.9%
viability, T/C [2]: 92.3%
viability, T/C [3]: 91%
viability, T/C [4]: 96.1%
viability, T/C (second compound 0.0316 µM, first compound 3.16 µM): 100%
viability, T/C (second compound 0.0316 µM, first compound 10 µM): 78.3%
viability, T/C [5]: 95%
viability, T/C [6]: 89.7%
viability, T/C [7]: 91.4%
viability, T/C [8]: 93.6%
viability, T/C (second compound 0.1 µM, first compound 3.16 µM): 91.9%
viability, T/C (second compound 0.1 µM, first compound 10 µM): 84.4%
viability, T/C [9]: 83.8%
viability, T/C [10]: 90%
viability, T/C [11]: 85.3%
viability, T/C [12]: 87.3%
viability, T/C (second compound 0.316 µM, first compound 3.16 µM): 86.8%
viability, T/C (second compound 0.316 µM, first compound 10 µM): 83%
viability, T/C [13]: 74%
viability, T/C [14]: 75.6%
viability, T/C [15]: 75.3%
viability, T/C [16]: 77%
viability, T/C (second compound 1 µM, first compound 3.16 µM): 72%
viability, T/C (second compound 1 µM, first compound 10 µM): 64.4%
viability, T/C [17]: 57.8%
viability, T/C [18]: 59.4%
viability, T/C [19]: 60.1%
viability, T/C [20]: 65%
viability, T/C (second compound 3.16 µM, first compound 3.16 µM): 66%
viability, T/C (second compound 3.16 µM, first compound 10 µM): 54.2%
viability, T/C [21]: 51.5%
viability, T/C [22]: 48.2%
viability, T/C [23]: 52.9%
viability, T/C [24]: 50.6%
viability, T/C (second compound 10 µM, first compound 3.16 µM): 52.1%
viability, T/C (second compound 10 µM, first compound 10 µM): 47.9%

COc1c(OCCCN2CCOCC2)ccc2c3n(c(=NC(=O)c4cnc(N)nc4)nc12)CCN3 + Cc1c(S(C)(=O)=O)c(-c2cc(F)cc(N3CCN(c4ccc(NS(=O)(=O)c5ccc(NC(CCN6CCC(C(=O)OCCCP(=O)(O)O)CC6)CSc6ccccc6)c(S(=O)(=O)C(F)(F)F)c5)cc4)CC3)c2)c(-c2ccc(Cl)cc2)n1C(C)C
IC50 (second compound 0.0316 µM): 442 nM
IC50 (second compound 0.1 µM): 406 nM
IC50 (second compound 0.316 µM): 215 nM
IC50 (second compound 1 µM): 157 nM
IC50 (second compound 3.16 µM): 27 nM
IC50 (second compound 10 µM): < 3.16 nM
viability, T/C (second compound 0.0316 µM, first compound 0.00316 µM): 95.3%
viability, T/C (second compound 0.0316 µM, first compound 0.01 µM): 91.8%
viability, T/C [1]: 83.6%
viability, T/C [2]: 64.6%
viability, T/C [3]: 57.8%
viability, T/C [4]: 38.4%
viability, T/C (second compound 0.1 µM, first compound 0.00316 µM): 94.4%
viability, T/C (second compound 0.1 µM, first compound 0.01 µM): 86%
viability, T/C [5]: 79.3%
viability, T/C [6]: 65.9%
viability, T/C [7]: 55.7%
viability, T/C [8]: 36.2%
viability, T/C (second compound 0.316 µM, first compound 0.00316 µM): 87.7%
viability, T/C (second compound 0.316 µM, first compound 0.01 µM): 92.6%
viability, T/C [9]: 69%
viability, T/C [10]: 57.5%
viability, T/C [11]: 49.7%
viability, T/C [12]: 34.1%
viability, T/C (second compound 1 µM, first compound 0.00316 µM): 78.9%
viability, T/C (second compound 1 µM, first compound 0.01 µM): 74.5%
viability, T/C [13]: 61.8%
viability, T/C [14]: 51.6%
viability, T/C [15]: 49.5%
viability, T/C [16]: 27.1%
viability, T/C (second compound 3.16 µM, first compound 0.00316 µM): 63.6%
viability, T/C (second compound 3.16 µM, first compound 0.01 µM): 58.8%
viability, T/C [17]: 46%
viability, T/C [18]: 41%
viability, T/C [19]: 33.6%
viability, T/C [20]: 21.5%
viability, T/C (second compound 10 µM, first compound 0.00316 µM): 48.1%
viability, T/C (second compound 10 µM, first compound 0.01 µM): 44.7%
viability, T/C [21]: 41.2%
viability, T/C [22]: 35.6%
viability, T/C [23]: 35.6%
viability, T/C [24]: 21.4%
